Series [1] in a line: Cytotoxicity against human MRC5 cells after 48 hrs by MTT assay. Type of series: cell-based. On the technique in general: Tetrazolium assays rely on reduction of a dye to a coloured formazan, in cell work by metabolically active cells.
Series [2] deals with Human alphaherpesvirus 1. The series is described as follows: Antiviral activity against HSV1 infected herpes simplex keratitis New zealand rabbit model at 0.025% to 0.1% administered twice daily as gel 24 hrs post inoculation measured on day 9 post infection. It is filed as functional, organism-based.
Series [3] can be described thus: Cytotoxicity against african green monkey Vero cells assessed as inhibition of cell viability after 48 hrs by MTT assay. Type of series: cell-based. The note with it: chlorocebus sabaeus.
Series [4] deals with Human alphaherpesvirus 1. The series is described as follows: Antiviral activity against HSV1 strain F ATCC VR733 infected in african green monkey Vero cells assessed as inhibition of cytopathic effect after 48 hrs by plaque reduction assay. Type of series: functional, organism-based. The note with it: for EC50: Human alphaherpesvirus 1, strain F ATCC VR733, Vero. For orientation: Protection from cytopathic effect is a common read-out in antiviral testing.

Series [5] has as its system Human alphaherpesvirus 1. Put plainly: Antiviral activity against HSV1 strain F ATCC VR733 infected in african green monkey Vero cells assessed as inhibition of cytopathic effect at 4 uM after 48 hrs by plaque reduction assay. It is filed as functional, organism-based.
Series [6] is described as follows: Selectivity index, ratio of CC50 for african green monkey Vero cells to EC50 for HSV1 strain F ATCC VR733 infected in african green monkey Vero cells. Type of series: toxicity, cell-based. The note with it: read-out: Ratio CC50/EC50.
Series [7] has as its system Human alphaherpesvirus 2. Put plainly: Antiviral activity against HSV2 strain 333 infected in african green monkey Vero cells assessed as inhibition of cytopathic effect at 4 uM after 48 hrs by plaque reduction assay. It is filed as functional, cell-based.
The test system of series [8] is Human alphaherpesvirus 1. The series is described as follows: Antiviral activity against HSV1 infected herpes simplex keratitis New zealand rabbit model assessed as reduction in viral DNA level in corneal sample compound administered twice daily as gel 24 hrs post inoculation measured on day 9 post infection by RT-PCR analysis. Type of series: functional, organism-based. The note with it: Cornea.

The subject of series [9] is Human alphaherpesvirus 1. Put plainly: Antiviral activity against HSV1 infected herpes simplex keratitis New zealand rabbit model assessed as reduction in viral DNA level in corneal sample at 0.025% to 0.1% administered twice daily as gel 24 hrs post inoculation measured on day 9 post infection by RT-PCR analysis. The note with it: Cornea. Type of series: functional, organism-based.

The subject of series [10] is Human alphaherpesvirus 2. Put plainly: Antiviral activity against HSV2 strain 333 infected in african green monkey Vero cells assessed as inhibition of cytopathic effect after 48 hrs by plaque reduction assay. The note with it: for EC50: Human alphaherpesvirus 2, strain 333, Vero. Type of series: functional, cell-based.
For series [11], the system named is Human alphaherpesvirus 1. The series is described as follows: Antiviral activity against HSV1 infected herpes simplex keratitis New zealand rabbit model assessed as reduction in corneal epithelia involvement score at 0.025% to 0.1% administered twice daily as gel 24 hrs post inoculation measured on day 9 post infection. Type of series: functional, organism-based. The note with it: Cornea.

Series [12] can be described thus: Selectivity index, ratio of CC50 for african green monkey Vero cells to EC50 for HSV2 strain 333 infected in african green monkey Vero cells.
For series [13], the system named is Human alphaherpesvirus 1. The series is described as follows: Antiviral activity against HSV1 strain F ATCC VR733 infected in african green monkey Vero cells assessed as inhibition of cytopathic effect at 3.5 uM after 48 hrs by plaque reduction assay. It is filed as functional, organism-based.
The subject of series [14] is Human alphaherpesvirus 2. Put plainly: Antiviral activity against HSV2 strain 333 infected in african green monkey Vero cells assessed as inhibition of cytopathic effect at 3.5 uM after 48 hrs by plaque reduction assay. It is filed as functional, cell-based.
The subject of series [15] is Human alphaherpesvirus 1. Put plainly: Antiviral activity against HSV1 infected herpes simplex keratitis New zealand rabbit model at 0.1% administered twice daily as gel 24 hrs post inoculation measured on day 9 post infection. Type of series: functional.
The test system of series [16] is Human alphaherpesvirus 1. The series is described as follows: Antiviral activity against HSV1 infected herpes simplex keratitis New zealand rabbit model at 0.025% administered twice daily as gel 24 hrs post inoculation measured on day 9 post infection. Type of series: functional.

As a reminder, the CC50 is the concentration giving 50% cytotoxicity. What is called EC50 is the concentration needed to bring the measured effect to its halfway point.

SMILES strings stand for the structures. The source made the active and inactive calls. The calls are words filed in the database; no cut-off is given here.

Take `Cc1cn(-c2ccc(C(N)=O)c(N[C@H]3CC[C@H](O)CC3)c2)c2c1C(=O)CC(C)(C)C2`: the CC50 at 48 h in series [1] was determined as 24900 nM; in series [3], 12900 nM. Besides, the outcome in [2], in series [9] and in [11] was Active. For the same compound, the inhibition result in [4] and in series [10] was “Dose-dependent effect” throughout. In addition, the results for the half-maximal effective concentration (EC50) in series [4] and in [10] were 1030 nM and 1000 nM, respectively. The inhibition result in series [5] and in series [7] was “Active” throughout. Also, the selectivity ratio in series [6] was 12.6. The Activity result in series [8] was “Dose-dependent effect”. Also, the “Ratio CC50/EC50” value in [12] stood at 12.94.
For the compound `CC1(C)CC(=O)c2c(C(F)(F)F)nn(-c3ccc(C(N)=O)c(N[C@H]4CC[C@H](O)CC4)c3)c2C1` [SNX-2112], the figures for the CC50 at 48 h in series [1] and in series [3] were 21300 nM and 13300 nM, respectively. For the same compound, the result in series [2], in series [9] and in [11] was Active. For the same compound, the inhibition result in series [4] and in series [10] was “Dose-dependent effect” throughout. Besides, the figures for the EC50 in [4] and in series [10] were 2260 nM and 1850 nM, respectively. Moreover, the inhibition result in series [5] and in series [7] was “Active” each time. In addition, the selectivity ratio in series [6] turned out to be 5.9. In series [8], the Activity entry is “Dose-dependent effect”. Also, the “Ratio CC50/EC50” value in [12] came out at 7.21.
Consider `Nc1nc2c(ncn2COCCO)c(=O)[nH]1` [ACYCLOVIR], for which the half-maximal cytotoxic concentration (CC50) at 48 h in [3] was more than 200000 nM. In addition, the results for the EC50 in series [4] and in series [10] were 1200 nM and 1870 nM, respectively. Besides, in [6], the selectivity ratio is more than 167. For the same compound, in series [8], the Activity result was “Dose-dependent effect”. The result in series [9] and in [11] was Active. The “Ratio CC50/EC50” value in series [12] is more than 106.95. For the same compound, the inhibition result in [13] and in series [14] was “Active” throughout.
`Cc1nn(-c2ccc(C(N)=O)c(N[C@H]3CC[C@H](O)CC3)c2)c2c1C(=O)CC(C)(C)C2`: the Activity was 83.76% in series [15], “Dose-dependent effect” in series [8] and 74.23% in series [16]. Moreover, the cytotoxic concentration (CC50) at 48 h turned out to be 54100 nM in [1] and 27100 nM in [3]. Besides, the result in series [2], in series [9] and in [11] was Active. For the same compound, the inhibition entry in series [4] and in series [10] was “Dose-dependent effect” in each case. Besides, the results for the EC50 in [4] and in [10] were 2240 nM and 1750 nM, respectively. Moreover, the inhibition result in series [5] and in series [7] was “Active” throughout. Besides, the selectivity ratio in [6] was found to be 12.1. The “Ratio CC50/EC50” value in series [12] is on record as 15.46.

For the origin of these results see ChEMBL document CHEMBL2163311, “Anti-herpes simplex virus efficacies of 2-aminobenzamide derivatives as novel HSP90 inhibitors” (Bioorg Med Chem Lett, 2012).
